Data reported in ChEMBL document CHEMBL4483862, “Open-source discovery of chemical leads for next-generation chemoprotective antimalarials” (2018).
pIC50: −log10 of the molar value.

System: Plasmodium berghei
Assay: Luciferase/luciferin-expressing antifolate-resistant parasites were used to infect a culture of HepG2 cells that were pre-incubated with compounds. Infected hepatocytes emit light due to the luciferase reaction. Assay results are presented as the percent inhibition of light emission compared to control. […]
Type: functional
Details: sporozoite; for IC90: read-out: LUCIFERASE INFECTION ASSAY - IC90
[1] = read-out: LUCIFERASE INFECTION ASSAY - IC50

| Compound | IC90 [µM] | pIC50 [1] | also measured |
| --- | --- | --- | --- |
| Cc1ccc2nc(NC(=O)c3ccc(F)cc3)c(C(=O)NC3CCCCC3)n2c1 | 4.51 | – | pIC50 (HEPG2TOX_HILL_SLOPE 8.64, HEPG2TOX_R_SQUARED 0.539, PBLUC_HILL_SLOPE 8.68, PBLUC_R_SQUARED 0.013, read-out: LUCIFERASE INFECTION ASSAY - IC50): 5.46 |
| CCc1nc(CN2CC=C(c3c[nH]c4ccccc34)CC2)cs1 | 7.32 | – | pIC50 (HEPG2TOX_HILL_SLOPE 12.8, HEPG2TOX_R_SQUARED 0.446, PBLUC_HILL_SLOPE 9.90, 7.64, PBLUC_R_SQUARED 0.0237, 0.266, read-out: LUCIFERASE INFECTION ASSAY - IC50): 5.24 |
| Cn1/c(=N/N=C2\C(=O)N(Cc3ccccc3)c3ccccc32)sc2ccccc21 | > 10 | < 5.00 | – |
| O=C(NC1CCOc2ccccc21)c1ccccc1Oc1ccccc1 (stereo unspecified) | > 10 | – | pIC50 (HEPG2TOX_HILL_SLOPE 5.41, HEPG2TOX_R_SQUARED 0.0143, read-out: LUCIFERASE INFECTION ASSAY - IC50): < 5.00 |
| O=C(COC(=O)Cc1ccc(Cl)c(Cl)c1)Nc1ccc(OCc2ccccc2)cc1 | > 10 | < 5.00 | – |
| CCOC(=O)c1c(C)[nH]c(C(=O)C(C)OC(=O)c2n[nH]c(=O)c3ccccc23)c1C (stereo unspecified) | > 10 | – | pIC50 (HEPG2TOX_HILL_SLOPE 1.25, HEPG2TOX_R_SQUARED 0.561, read-out: LUCIFERASE INFECTION ASSAY - IC50): < 5.00 |
| COc1cccc(Nc2nccc3c2cc(-c2cccc(OC)c2)n3C)c1 | > 10 | – | pIC50 (PBLUC_HILL_SLOPE 0.902, PBLUC_R_SQUARED 0.605, read-out: LUCIFERASE INFECTION ASSAY - IC50): 5.59 |
| CC(C)n1c(Sc2ncc([N+](=O)[O-])s2)nc2cc(Cl)ccc21 | 8.83 | – | pIC50 (FFLUC_HILL_SLOPE 44.5, FFLUC_R_SQUARED 0.755, HEPG2TOX_HILL_SLOPE 8.37, HEPG2TOX_R_SQUARED 0.175, PBLUC_HILL_SLOPE 4.42, PBLUC_R_SQUARED 0.266, read-out: LUCIFERASE INFECTION ASSAY - IC50): 5.27 |
| CCN(CC)S(=O)(=O)c1ccc(Cl)c(NC(=O)CSc2nnc(-c3ccc(F)cc3)c3ccccc23)c1 | > 10 | – | pIC50 (FFLUC_HILL_SLOPE 11.3, FFLUC_R_SQUARED 0.167, read-out: LUCIFERASE INFECTION ASSAY - IC50): < 5.00 |
| O=C(NC1CCN(c2ccc(S(=O)(=O)C(F)F)cc2)CC1)C1CC1 | > 10 | – | pIC50 (HEPG2TOX_HILL_SLOPE 4.17, HEPG2TOX_R_SQUARED 0.587, PBLUC_HILL_SLOPE 17, PBLUC_R_SQUARED 0.152, read-out: LUCIFERASE INFECTION ASSAY - IC50): 5.05 |
| CSc1ncccc1C(=O)Nc1nc(-c2ccc3ccccc3c2)cs1 | > 10 | – | pIC50 (FFLUC_HILL_SLOPE 11.5, FFLUC_R_SQUARED 0.449, read-out: LUCIFERASE INFECTION ASSAY - IC50): < 5.00 |
| O=C(NNC(=O)c1csnn1)c1ccc(C(F)(F)F)cc1 | 1.19 | – | pIC50 (PBLUC_HILL_SLOPE 3.95, PBLUC_R_SQUARED 0.658, read-out: LUCIFERASE INFECTION ASSAY - IC50): 6.16 |
| Cc1ccc(S(=O)(=O)Nc2cccc(C(=O)NN(C)c3ccccc3)c2)cc1F | > 10 | < 5.00 | – |
| COc1ccc(Nc2ccnc3cc(Cl)ccc23)cc1OC | > 10 | 5.15 | – |
| COc1cc(CCC2CCN(c3ccc4nnc(C(F)(F)F)n4n3)CC2)cc(OC)c1 | > 10 | – | pIC50 (PBLUC_HILL_SLOPE 2.86, PBLUC_R_SQUARED 0.563, read-out: LUCIFERASE INFECTION ASSAY - IC50): 5.23 |
| Cc1nc(Sc2nnnn2C)c2c3c(sc2n1)CCC3 | 4.17 | – | pIC50 (HEPG2TOX_HILL_SLOPE 11.4, HEPG2TOX_R_SQUARED 0.852, PBLUC_HILL_SLOPE 13, PBLUC_R_SQUARED 0.536, read-out: LUCIFERASE INFECTION ASSAY - IC50): 5.45 |
| Fc1cccc(NC(=S)NN=C2CCCCCC2)c1 | > 11.8 | – | pIC50 (PBLUC_HILL_SLOPE 0.519, PBLUC_R_SQUARED 0.189, read-out: LUCIFERASE INFECTION ASSAY - IC50): < 4.93 |
| Cc1cc(C)c(C)c(S(=O)(=O)N2CCC(C(=O)Nc3nc(-c4ccc[nH]4)cs3)CC2)c1C | > 10 | – | pIC50 (FFLUC_HILL_SLOPE 22.1, FFLUC_R_SQUARED 0.531, read-out: LUCIFERASE INFECTION ASSAY - IC50): < 5.00 |
| COc1ccc(NC(=O)c2cccc(S(=O)(=O)N(Cc3ccccc3)c3ccccc3Cl)c2)cn1 | > 10 | – | pIC50 (PBLUC_HILL_SLOPE 11, PBLUC_R_SQUARED 0.0841, read-out: LUCIFERASE INFECTION ASSAY - IC50): 5.01 |
| Cc1ccccc1S(=O)(=O)Nc1nccnc1N1CCN(S(=O)(=O)c2cccc3ccccc23)CC1 | > 6.3 | < 5.20 | – |
| N#Cc1ccc(CN2CCCN(c3ncnc4sccc34)CC2)cc1 | > 10 | 5.78 | – |
| CCOC(=O)c1cnn(-c2ccc(Cc3ccc(-n4ncc(C(=O)OCC)c4C)cc3)cc2)c1C | > 6.98 | – | pIC50 (PBLUC_HILL_SLOPE 1.32, PBLUC_R_SQUARED 0.439, read-out: LUCIFERASE INFECTION ASSAY - IC50): 5.69 |

| Compound | IC90 [µM] | pIC50 [1] | also measured |
| --- | --- | --- | --- |
| CCOC(=O)c1c[nH]c2ccc(OC(F)(F)F)cc2c1=O | > 11 | < 4.96 | – |
| Cc1nnc(SCC(=O)Nc2ccc(Cl)cn2)n(N)c1=O | > 10 | < 5.00 | – |
| COc1ccc(-c2nc(CN(c3ccccc3)S(=O)(=O)c3ccccc3)co2)cc1 | > 10 | – | pIC50 (PBLUC_HILL_SLOPE 12.4, PBLUC_R_SQUARED 0.25, read-out: LUCIFERASE INFECTION ASSAY - IC50): < 5.00 |
| COc1ccc(-c2cc(-c3nnc4n3CCCCC4)c3c(C)nn(-c4ccccc4)c3n2)cc1 | > 10 | – | pIC50 (PBLUC_HILL_SLOPE 3.73, PBLUC_R_SQUARED 0.529, read-out: LUCIFERASE INFECTION ASSAY - IC50): 5.24 |
| CCN(CC)S(=O)(=O)c1ccc(N2CCOCC2)c(NC(=O)c2cc(-c3cc(OC)c(OC)c(OC)c3)nc3ccccc23)c1 | 8.54 | – | pIC50 (PBLUC_HILL_SLOPE 2.9, PBLUC_R_SQUARED 0.79, read-out: LUCIFERASE INFECTION ASSAY - IC50): 5.40 |
| COc1ccc2c(c1)C(=O)/C(=C\c1ccc(OCc3nccn3C)cc1)CO2 | > 10 | – | pIC50 (PBLUC_HILL_SLOPE 10.1, PBLUC_R_SQUARED 0.104, read-out: LUCIFERASE INFECTION ASSAY - IC50): 5.07 |
| CCC(C)c1ccccc1OS(=O)(=O)c1ccc2c(c1)NC(=O)CO2 (stereo unspecified) | > 10 | < 5.00 | – |
| O=C(c1c(-c2ccccc2)c2c3n(c(CN(C(=O)C4CC4)c4ccccc4)nn13)CCCC2)C1CC1 | > 10 | – | pIC50 (HEPG2TOX_HILL_SLOPE 2.64, HEPG2TOX_R_SQUARED 0.879, read-out: LUCIFERASE INFECTION ASSAY - IC50): < 5.00 |
| CN(C)C(=O)c1ccc(Nc2cc3c(cn2)nc(-c2ccco2)n3C)cc1 | > 10 | < 5.00 | – |
| OCCCNc1nn2c(-c3cccc(F)c3)cnc2s1 | > 11.3 | < 4.95 | – |
| Cn1nnnc1SCC(=O)Nc1ccc(C(=O)Nc2ncccc2O)cc1 | 6.88 | – | pIC50 (PBLUC_HILL_SLOPE 1.53, PBLUC_R_SQUARED 0.512, read-out: LUCIFERASE INFECTION ASSAY - IC50): 5.79 |
| COCCN1C(=O)N(Cc2cccc(OC)c2)C(=O)C12CCN(C1CCc3ccccc3C1)CC2 (stereo unspecified) | > 6.91 | – | pIC50 (PBLUC_HILL_SLOPE 3.06, PBLUC_R_SQUARED 0.614, read-out: LUCIFERASE INFECTION ASSAY - IC50): 5.35 |
| CCc1nn2c(=O)c(CC)c(C)[nH]c2c1-c1ccc(Cl)cc1 | > 10.4 | – | pIC50 (FFLUC_HILL_SLOPE 10.5, FFLUC_R_SQUARED 0.352, PBLUC_HILL_SLOPE 13.5, PBLUC_R_SQUARED 0.435, read-out: LUCIFERASE INFECTION ASSAY - IC50): 5.05 |
| COc1ccc(CN2C(=O)N(C)C3(CCN(Cc4ccc(N5CCCC5)cc4)CC3)C2=O)cc1 | > 7.13 | – | pIC50 (HEPG2TOX_HILL_SLOPE 9.02, HEPG2TOX_R_SQUARED 0.802, PBLUC_HILL_SLOPE 4.22, PBLUC_R_SQUARED 0.106, read-out: LUCIFERASE INFECTION ASSAY - IC50): 5.29 |
| CCc1cn(Cc2ccccc2)c[n+]1Cc1ccccc1 | > 10.5 | – | pIC50 (FFLUC_HILL_SLOPE 0.817, FFLUC_R_SQUARED 0.751, PBLUC_HILL_SLOPE 3.02, PBLUC_R_SQUARED 0.429, read-out: LUCIFERASE INFECTION ASSAY - IC50): 5.24 |
| O=C(NNC(=O)c1ccccn1)c1ccc(C2SCCCS2)cc1 | > 10 | – | pIC50 (FFLUC_HILL_SLOPE 16.5, FFLUC_R_SQUARED 0.524, PBLUC_HILL_SLOPE 17.5, PBLUC_R_SQUARED 0.078, read-out: LUCIFERASE INFECTION ASSAY - IC50): 5.04 |
| c1ccc(-c2ncc(CSc3ncnc4sccc34)s2)cc1 | > 10 | < 5.00 | – |
| O=C(CN1CCN(C(=O)/C=C/c2sc3ccccc3c2Cl)CC1)NC1CC1 | 8.7 | – | pIC50 (PBLUC_HILL_SLOPE 3.79, PBLUC_R_SQUARED 0.282, read-out: LUCIFERASE INFECTION ASSAY - IC50): 5.31 |
| CC(C)c1cccc(-c2ccc3nnc(-c4ccc5c(c4)NC(=O)CO5)n3c2)c1 | > 10 | – | pIC50 (HEPG2TOX_HILL_SLOPE 7.77, HEPG2TOX_R_SQUARED 0.643, read-out: LUCIFERASE INFECTION ASSAY - IC50): < 5.00 |
| CCCNC(=O)c1c(NC(=O)c2cccc(C#N)c2)nc2ccc(C)cn12 | > 9.13 | – | pIC50 (HEPG2TOX_HILL_SLOPE 3.59, HEPG2TOX_R_SQUARED 0.259, PBLUC_HILL_SLOPE 11, PBLUC_R_SQUARED 0.773, read-out: LUCIFERASE INFECTION ASSAY - IC50): 5.07 |
| Cc1cc(=O)n2nc(C(F)(F)F)n(CC(=O)Nc3ccc(Sc4ccc(C)c(C)c4)cc3)c2c1 | > 10 | < 5.00 | – |
